Data: the supplement of paper PMC10307832

Columns and labels:
Assay in all cases: relative viability (nuclei count vs DMSO), 5 days (fraction); higher = more cells survive
Tanzisertib + Foretinib = compound: O[C@H]1CC[C@H](Nc2ncc3nc(Nc4c(F)cc(F)cc4F)n([C@H]4CCOC4)c3n2)CC1 [Tanzisertib] + COc1cc2c(Oc3ccc(NC(=O)C4(C(=O)Nc5ccc(F)cc5)CC4)cc3F)ccnc2cc1OCCCN1CCOCC1 [Foretinib] (partner 0.25 µM)
Method in brief: (§1)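 Relative viability equals treated-well nuclei counts divided by vehicle-well nuclei counts. Counts came from 4× images of lung cancer cell lines grown in 1536-well plates for 5 days after pin-tool dosing on the day after seeding. Dosing used one drug alone or a fixed anchor-drug dose plus five library-drug doses (not always all listed) in √10 steps, and values are medians of duplicate plates.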

[1] = compound: C1CNCCC1C2=CC(=NN2)C3=CC=NC=C3 + N=C(N)NC(=N)NCCc1ccccc1 [Phenformin] (partner 250 µM)
Method in brief: as §1

[2] = compound: C1CNCCC1C2=CC(=NN2)C3=CC=NC=C3 + O=C(CCCCCCC(=O)Nc1ccccc1)NO [Vorinostat] (partner 1 µM)
Method in brief: as §1

[3] = compound: C[C@@H](N)c1ccc(C(=O)Nc2ccnc3[nH]ccc23)cc1 + COc1cccc2cc(-c3nc([C@H]4CC[C@H](C(=O)O)CC4)n4ncnc(N)c34)[nH]c12 [OSI-027] (partner 0.5 µM)
Method in brief: as §1

Work on UMC-11 yielded a relative viability (Tanzisertib + Foretinib; first compound 0.08 µM) of 0.976, a relative viability (Tanzisertib + Foretinib; first compound 0.253 µM) of 1.14 and a relative viability (Tanzisertib + Foretinib; first compound 0.8 µM) of 0.962. For the same cell line, the relative viability (Tanzisertib + Foretinib; first compound 2.53 µM) was 1.01, the relative viability (Tanzisertib + Foretinib; first compound 8 µM) was 1.18 and the relative viability ([1]; first compound 0.08 µM) was 0.325. For the same cell line, the relative viability ([1]; first compound 0.8 µM) was 0.209, the relative viability ([1]; first compound 2.53 µM) was 0.348 and the relative viability ([1]; first compound 8 µM) was 0.351. For the same cell line, the relative viability ([2]; first compound 0.08 µM) was 0.394, the relative viability ([2]; first compound 0.8 µM) was 0.419 and the relative viability ([2]; first compound 2.53 µM) was 0.392. The relative viability ([2]; first compound 8 µM) was 0.565, the relative viability ([3]; first compound 0.04 µM) was 0.583 and the relative viability ([3]; first compound 0.1265 µM) was 0.565. For the same cell line, the relative viability ([3]; first compound 0.4 µM) was 0.555, the relative viability ([3]; first compound 1.265 µM) was 0.453 and the relative viability ([3]; first compound 4 µM) was 0.459.
